From PMC8728441, “Biosynthesis of the redox cofactor mycofactocin is controlled by the transcriptional regulator MftR and induced by long-chain acyl-CoA species” (The Journal of Biological Chemistry, 2021)

Key:
MftR D16R = experiment: ITC binding of oleoyl-CoA to MftR variant; set-up: species or system Mycobacterium smegmatis mc^2155; conditions: ND = not detected
Source text: (§1) Next, we examined which amino acid residues contribute to the interaction between MftR and oleoyl-CoA. The crystal structure of Msmeg MftR is currently unavailable; however, an unpublished structure of Rhodococcus jostii RHA1 MftR has been deposited in the Protein Data Bank (PDB) (PDB ID: 2RAE, 54% identical, Fig. S3). Using this structure, we employed SwissDock to model oleoyl-CoA bound to MftR (Fig. 5) ([41], [42]). From the docked structure, we identified eight conserved residues on MftR that were expected to create the acyl-binding pocket or bind CoA through electrostatic interactions. Following single amino acid replacements of the residues, we measured the Kd values of the mutant proteins to oleoyl-CoA using ITC. For the putative acyl-binding pocket residues Phe65, Phe96, and Ile114, mutations to alanine led to no or modest change to the Kd for oleoyl-CoA (Table 1). […] Conversely, when His68 was mutated to alanine, binding of oleoyl-CoA by the protein was undetectable. To validate this observation, competitive EMSAs were carried out using the H68A mutant. […] Thus, it is highly likely that His68 is an important residue for oleoyl-CoA binding. To evaluate residues that were expected to interact with CoA, Gln15, Asp16, Ser67, and Asp66 were targeted. Of these, mutants of Asp16 and Ser67 had the greatest effect (Table 1). […] This latter observation was validated using competitive EMSAs (Fig. S4B). […] Taken together, it is likely that Ser67 and Asp16 participate in oleoyl-CoA binding, likely through electrostatic interactions.
(§2) Mutant strand synthesis reactions were performed according to the Agilent QuikChange site-directed mutagenesis protocol. The mftR_pET28a plasmid was used as a template for site-directed mutagenesis studies. Sequence-verified plasmids were transformed into E. coli BL21(DE3) pLysS cells for protein production and purified using the same protocol as wildtype MftR.
(§3) ITC was performed using TA Nano ITC. MftR was loaded in the sample cell at the concentration of 16 and 250 μM acyl-CoAs (C12–C18) loaded in the syringe. To minimize the effect of buffer mismatch, the stock concentration of acyl-CoAs was prepared using ITC buffer (50 mM Hepes, 50 mM NaCl, and pH 7.5), and the pH was adjusted to within 0.05 units. In addition, MftR was buffer exchanged into ITC buffer using a PD-10 column (GE Life Sciences). The volume of the titrant added at each injection into the sample cell was 2.22 μl. The time interval between the successive injections was 180 s. The temperature of the cell was kept at 25 °C. The data obtained were fit by independent one-site model using NanoAnalyze Data Analysis, version 3.8.0, that was provided with the instrument.

MftR S67W [1] = experiment: ITC binding of oleoyl-CoA to MftR variant; set-up: species or system Mycobacterium smegmatis mc^2155; conditions: S67W mutation vs WT, ITC
Source text: as §1, §2, §3

MftR F65A = target: T1, MftR F65A (Mycolicibacterium smegmatis, UniProt A0QSB5, F65A); experiment: ITC binding of oleoyl-CoA to MftR variant; set-up: species or system Mycobacterium smegmatis mc^2155
T1 sequence (A0QSB5 1-200 F65A): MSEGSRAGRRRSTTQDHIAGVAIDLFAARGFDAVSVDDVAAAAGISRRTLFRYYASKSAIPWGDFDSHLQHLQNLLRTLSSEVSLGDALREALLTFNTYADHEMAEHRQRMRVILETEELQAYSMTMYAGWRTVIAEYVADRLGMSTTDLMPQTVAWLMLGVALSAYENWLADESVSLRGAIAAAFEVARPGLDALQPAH
Source text: as §1, §2, §3

MftR S67A = target: T2, MftR S67A (Mycolicibacterium smegmatis, UniProt A0QSB5, S67A); experiment: ITC binding of oleoyl-CoA to MftR variant; set-up: species or system Mycobacterium smegmatis mc^2155
T2 sequence (A0QSB5 1-200 S67A): T1 sequence (A0QSB5 1-200 F65A)
Source text: as §1, §2, §3

MftR D66A = target: T3, MftR D66A (Mycolicibacterium smegmatis, UniProt A0QSB5, D66A); experiment: ITC binding of oleoyl-CoA to MftR variant; set-up: species or system Mycobacterium smegmatis mc^2155
T3 sequence (A0QSB5 1-200 D66A): T1 sequence (A0QSB5 1-200 F65A)
Source text: as §1, §2, §3

MftR S67W [2] = target: T4, MftR S67W (Mycolicibacterium smegmatis, UniProt A0QSB5, S67W); experiment: ITC binding of oleoyl-CoA to MftR variant; set-up: species or system Mycobacterium smegmatis mc^2155
T4 sequence (A0QSB5 1-200 S67W): T1 sequence (A0QSB5 1-200 F65A)
Source text: as §1, §2, §3

MftR I114A = target: T5, MftR I114A (Mycolicibacterium smegmatis, UniProt A0QSB5, I114A); experiment: ITC binding of oleoyl-CoA to MftR variant; set-up: species or system Mycobacterium smegmatis mc^2155
T5 sequence (A0QSB5 1-200 I114A): T1 sequence (A0QSB5 1-200 F65A)
Source text: as §1, §2, §3

MftR Q15A = target: T6, MftR Q15A (Mycolicibacterium smegmatis, UniProt A0QSB5, Q15A); experiment: ITC binding of oleoyl-CoA to MftR variant; set-up: species or system Mycobacterium smegmatis mc^2155
T6 sequence (A0QSB5 1-200 Q15A): T1 sequence (A0QSB5 1-200 F65A)
Source text: as §1, §2, §3

MftR D16W = target: T7, MftR D16W (Mycolicibacterium smegmatis, UniProt A0QSB5, D16W); experiment: ITC binding of oleoyl-CoA to MftR variant; set-up: species or system Mycobacterium smegmatis mc^2155
T7 sequence (A0QSB5 1-200 D16W): T1 sequence (A0QSB5 1-200 F65A)
Source text: as §1, §2, §3

MftR–Omft complex = experiment: Competitive EMSA screen for effectors of MftR; assay type: binding, Mycobacterium smegmatis mc^2155; conditions: 6-FAM Omft 0.5 μM, MftR 5 μM, effectors 100 μM
Procedure: Next, we assessed which metabolites activate MftR and thus could induce MFT production. To do so, we carried out competitive EMSAs where FAM-labeled Omft and MftR were incubated in the presence of potential effectors. We initially chose our effectors based on cholesterol catabolism, a process that putatively includes MFT biosynthetic genes ([38]). […] Knowing that TFRs have a propensity to be activated by fatty acyl-CoAs ([20]), we expanded our effector screening to include short-chain, medium-chain, and long-chain acyl-CoAs.
Figure 4 Effectors of MftR.A, an EMSA used to screen effectors of MftR. The 6-FAM–labeled Omft region (0.5 μM) was incubated with the MftR (5 μM) in the absence or the presence of effectors (100 μM). Protein–DNA complexes were separated by electrophoresis on 5% polyacrylamide gel. […] B, a representative isothermal titration calorimetry thermogram for the binding of the oleoyl-CoA to MftR regulator (blue) and the control of oleoyl-CoA into buffer (red). Each peak corresponds to the injection of 2.22 μl of 250 μM oleoyl-CoA into the cell containing 16 μM MftR or buffer. The integrated thermogram (blue dots) was fitted to a single-site binding model (black line) to determine the Kd. […] C, a bar graph depicting the ITC measured Kds for various acyl-CoAs. Bars represent the mean of three independent experiments, and the error bars represent the standard deviation of the experiments. 6-FAM, 6-carboxyfluorescein; ITC, isothermal titration calorimetry; Omft, mft operator.
His-tagged MftR was used to assess the protein binding to Pmft–MftA promoter fragment. DNA was mixed with increasing concentrations of the MftR protein in the reaction buffer (50 mM Hepes, 50 mM NaCl 0.1 mM EDTA, and pH 7.5) and incubated at room temperature for 10 min. The reactions were resolved by electrophoresis on a 5% (v/v) nondenaturing polyacrylamide gel in 1× Tris/borate/EDTA buffer at 200 V for 20 min on ice. Prior to the analysis, the gel was prerun for 30 min at 150 V on ice. Results were visualized by GelRed and recorded using Azure Biosystems 600 imaging system.

CCCCCCCC/C=C\CCCCCCCC(=O)SCCNC(=O)CCNC(=O)[C@H](O)C(C)(C)COP(=O)(O)OP(=O)(O)OC[C@H]1O[C@@H](n2cnc3c(N)ncnc32)[C@H](O)[C@@H]1OP(=O)(O)O [oleoyl-CoA]
Kd (MftR D16R): no longer detectable | increase in the Kd value for oleoyl-CoA (MftR S67W [1]): eightfold increase | Kd (MftR F65A): 1.9 ± 0.1 µM | Kd (MftR S67A): 5.4 ± 0.2 µM | Kd (MftR D66A): 1.6 ± 0.1 µM | Kd (MftR S67W [2]): 8.3 ± 0.2 µM | Kd (MftR I114A): 2.4 ± 0.1 µM | Kd (MftR Q15A): 2 ± 0.1 µM | Kd (MftR D16W): 4.8 ± 0.2 µM | disruption of the MftR–Omft complex (DNA release) (MftR–Omft complex): disrupted the MftR–Omft complex
